Legend:
[1] = Fluorometric PAI-1/uPA IC50 Plate Assay: To determine the efficacy of various synthesized compounds as PAI-1 inhibitors, a fluorometric plate assay was carried out to measure the half maximal inhibitory concentration (IC50) of these compounds on recombinant active human PAI-1 in vitro. An IC50 is a measure of the effectiveness of a compound in inhibiting biological or biochemical function. Stated another way, IC50 represents the concentration of a drug that is required for 50% inhibition in vitro. The IC50 of various compounds was measured using a fluorometric plate assay. PAI-1 inhibitor compounds were dissolved in DMSO to a final concentration of (10-50 mM), depending upon solubility. Compounds were then diluted in physiologic buffer (40 mM HEPES, 100 mM NaCl, 0.05% Tween-20, pH7.4) containing 10% DMSO and a dilution series (from 0 to 1000 uM depending on solubility) was prepared. 80 μL of compound was added per well to a 96-well black, opaque microplate in duplicate. 10 μL of 20 nM Recombinant active human PAI-1 (Molecular Innovations) in physiologic buffer (40 mM HEPES, 100 mM NaCl, 0.05% Tween-20, 10% DMSO, pH 7.4), or […] physiologic buffer with 10% human plasma, was added and the mixture was agitated for 15 minutes at room temperature. 10 μL of 25 nM uPA (Rheotromb®) was added to each reaction well and the plate was agitated for an additional 30 minutes at room temperature. Tripeptide aminomethylcoumarin Gly-Gly-Arg-AMC (Calbiochem) fluorogenic substrate (100 μL of 100 μM) was then added and residual uPA activity was determined based upon cleavage of this substrate. The rate of AMC release by uPA (fluorescence) was measured at an excitation wavelength of 370 nm and an emission wavelength of 440 nm. Controls included PAI-1 and uPA in the absence of compound and uPA alone. Percent PAI-1 inhibition was calculated using the following formula: [(uPA alone-uPA/PAI-1+ compound)/(uPA alone-PAI-1/uPA)]*100%. The IC50 was calculated using Graphit (IC50 0-100%).
[2] = (§1) Fluorometric PAI-1/uPA IC50 Plate Assay (10% plasma buffer): To determine the efficacy of various synthesized compounds as PAI-1 inhibitors, a fluorometric plate assay was carried out to measure the half maximal inhibitory concentration (IC50) of these compounds on recombinant active human PAI-1 in vitro. An IC50 is a measure of the effectiveness of a compound in inhibiting biological or biochemical function. Stated another way, IC50 represents the concentration of a drug that is required for 50% inhibition in vitro. The IC50 of various compounds was measured using a fluorometric plate assay. PAI-1 inhibitor compounds were dissolved in DMSO to a final concentration of (10-50 mM), depending upon solubility. Compounds were then diluted in physiologic buffer (40 mM HEPES, 100 mM NaCl, 0.05% Tween-20, pH7.4) containing 10% DMSO and a dilution series (from 0 to 1000 uM depending on solubility) was prepared. 80 μL of compound was added per well to a 96-well black, opaque microplate in duplicate. 10 μL of 20 nM Recombinant active human PAI-1 (Molecular Innovations) in physiologic buffer (40 mM HEPES, 100 mM NaCl, 0.05% Tween-20, 10% DMSO, pH 7.4), or […] physiologic buffer with 10% human plasma, was added and the mixture was agitated for 15 minutes at room temperature. […]
[3] = as §1, with “(1.5% BSA” for “(10% plasma”

Row | SMILES | IC50 [1] | IC50 [2] | IC50 [3]
1 | NNC(=O)C(=O)NCCc1ccc(CO)c(CO)c1 | 2560 µM |  | 
2 | COc1cc(CO)cc(CNC(=O)C(=O)NN)c1 | 4320 µM |  | 
3 | COc1cc(CO)ccc1CNC(=O)C(=O)NN | 2280 µM |  | 
4 | [C-]#[N+]c1ccc(CNC(=O)C(=O)NN)cc1 | 5470 µM | 851 µM | 892 µM

Reference: ChEMBL document CHEMBL5725542, “Plasminogen activator inhibitor-1 inhibitors and methods of use thereof” (2017)
